The target in this test is T1, small-conductance Ca2+-activated K+ channels (SK channels, subtype 2) (Homo sapiens, UniProt Q9H2S1).
T1 construct: expressed in transfected cells; host or cells: HEK293
Description: whole-cell patch-clamp of ionic current through SK2 channels in HEK293 cells (SC100). Type of test: cell-based. To be noted: whole-cell patch-clamp, HEK293 cells expressing SK2 channels; concentration that increases the basal current by 100%. The gist of the method:
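SC100, the concentration doubling basal current (a 100% increase), was taken from SK2 currents recorded by whole-cell patch-clamp in SK2-expressing HEK293 cells.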
For `COC(=O)N1CC(Oc2cc(NC3CCCCC3)nc(-c3nccs3)n2)C1` [NSSy6166, methyl 3-((6-(cyclohexylamino)-2-(thiazol-2-yl)pyrimidin-4-yl)oxy) azetidine-1-carboxylate], the “SC100 (μM)” value is on record as “+ (+ means >1 uM)”. To `COC(=O)N1CC(Oc2cc(NC3CCC(F)(F)CC3)nc(-c3nccs3)n2)C1` [NSSy6167] belongs “+ (+ means >1 uM)”. Consider `Cc1csc(-c2nc(NC3CCC(F)(F)CC3)cc(N3C[C@@H]4C[C@H]3CO4)n2)n1` [NSSy6171], for which the “SC100 (μM)” value was “++ (++ means 200 nM-1000 nM)”. In the case of `Cc1nsc(-c2nc(NC3CCC(F)(F)CC3)cc(N3CCN4C(=O)OCC4C3)n2)n1` (centres unmarked) [NSSy6178] it was “++ (++ means 200 nM-1000 nM)”; in that of `Cc1nsc(-c2nc(NC3CCC(F)(F)CC3)cc(N3CCN(C4COC4)CC3)n2)n1` [NSSy6201], “+ (+ means >1 uM)”. In the case of `Cc1nsc(-c2nc(NC3CCCCC3)cc(N3CCS(=O)(=O)CC3)n2)n1` [NSSy6202, 4-(6-(cyclohexylamino)-2-(3-methyl-1,2,4-thiadiazol-5-yl)pyrimidin-4-yl)thiomorpholine 1,1-dioxide] it was “++ (++ means 200 nM-1000 nM)”; in that of `Cc1nsc(-c2nc(NC3CCC(F)(F)CC3)cc(N3CCN4C(=O)OC[C@@H]4C3)n2)n1` [NSSy6251], “++ (++ means 200 nM-1000 nM)”; in that of `Cc1nsc(-c2nc(NC3CCC(F)(F)CC3)cc(N3CCN4C(=O)OC[C@H]4C3)n2)n1` [NSSy6252], “++ (++ means 200 nM-1000 nM)”.

Consider `Cc1csc(-c2nc(NC3CCC(F)(F)CC3)cc(OC3CCS(=O)(=O)CC3)n2)n1` [NSSy6253], for which the “SC100 (μM)” value is listed as “++ (++ means 200 nM-1000 nM)”. To `CC(=O)N1CCC(Oc2cc(NC3CCC(F)(F)CC3)nc(-c3nc(C)cs3)n2)CC1` [NSSy6258] belongs “++ (++ means 200 nM-1000 nM)”; to `Cc1csc(-c2nc(CC3CCC(F)(F)CC3)cc(N3CCOCC3)n2)n1` [NSSy6263, 4-(6-((4,4-difluorocyclohexyl)methyl)-2-(4-methylthiazol-2-yl)pyrimidin-4-yl)morpholine], “+ (+ means >1 uM)”.

Regarding `Cc1cc(C)n(-c2nc(NC3CCCC(F)(F)C3)cc(N3CCOCC3)n2)n1` (centres unmarked) [NSSy6265], the “SC100 (μM)” value is “+ (+ means >1 uM)”. To `Cc1ccn(-c2nc(NC3CCC(F)(F)CC3)cc(N(C)C3CC3)n2)n1` [NSSy6272] belongs “++ (++ means 200 nM-1000 nM)”; to `Cc1csc(-c2cc(N3CCOCC3)cc(OC3CCC(F)(F)CC3)n2)n1` [NSSy6285], “+ (+ means >1 uM)”; to `Cc1csc(-c2cc(N(C)C3COC3)cc(NC3CCC(F)(F)CC3)n2)n1` [NSSy6288], “++ (++ means 200 nM-1000 nM)”. To `Cc1csc(N2C[C@@H](Nc3ccc([N+](=O)[O-])cc3)C[C@H](N3CCOCC3)C2)n1` [NSSy6342, (3S,5S)-1-(4-methylthiazol-2-yl)-5-morpholino-N-(4-nitrophenyl)piperidin-3-amine] belongs “+ (+ means >1 uM)”; to `Fc1ccn(-c2nc(NC3CCC(F)(F)CC3)cc(N3CCOCC3)n2)n1` [NSSy6343], “+ (+ means >1 uM)”; to `Cc1csc(-c2nc(N3CCOCC3)cc(N3CC4CCCCC43)n2)n1` (centres unmarked) [NSSy6348, 4-(6-(7-azabicyclo[4.2.0]octan-7-yl)-2-(4-methylthiazol-2-yl)pyrimidin-4-yl)morpholine], “+ (+ means >1 uM)”.

Take `Cc1cc(C)n(-c2cc(CO)cc(NC3CCC(F)(F)CC3)n2)n1` [NSSy6355, (2-((4,4-difluorocyclohexyl)amino)-6-(3,5-dimethyl-1H-pyrazol-1-yl)pyridin-4-yl) methanol]: the “SC100 (μM)” value is “++ (++ means 200 nM-1000 nM)”. Take `CC(=O)N1CCC(c2cc(NC3CCC(F)(F)CC3)nc(-n3ccc(C)n3)n2)CC1` [NSSy6369]: the “SC100 (μM)” value is reported as “++ (++ means 200 nM-1000 nM)”. To `Cc1ccn(-c2cc(COc3ccc(C#N)cn3)cc(NC3CCC(F)(F)CC3)n2)n1` [NSSy6371] belongs “+++ (+++ means <200 nM)”; to `Cc1csc(-c2cc(OC3CCC(F)(F)CC3)nc(N3CCOCC3)c2)n1` [NSSy6374, 4-(6-((4,4-difluorocyclohexyl)oxy)-4-(4-methylthiazol-2-yl)pyridin-2-yl) morpholine], “+ (+ means >1 uM)”; to `Cc1cc(C)n(-c2nc(N3CCOCC3)cc(N(O)C3CCC(F)(F)CC3)n2)n1` [NSSy6386], “+ (+ means >1 uM)”. As to `Cc1cc(C)n(-c2cc(N3CCOCC3)nc(NC3CCC(F)(F)CC3)n2)n1` [NSSy6389], the “SC100 (μM)” value was “+ (+ means >1 uM)”. Turning to `Cc1csc(-c2cc(N3CCOCC3)nc(NC3CCC(F)(F)CC3)n2)n1` [NSSy6391, N-(4,4-difluorocyclohexyl)-4-(4-methylthiazol-2-yl)-6-morpholinopyrimidin-2-amine], the “SC100 (μM)” value is reported as “+ (+ means >1 uM)”. In the case of `Cc1ccn(-c2nc(NC3CCC(F)(F)CC3)cc(N3C[C@@H]4C[C@H]3CO4)n2)n1` [NSSy6394] it was “+ (+ means >1 uM)”; in that of `Cc1ccn(-c2cc(C(O)c3ncco3)cc(NC3CCC(F)(F)CC3)n2)n1` (centres unmarked) [NSSy6395], “++ (++ means 200 nM-1000 nM)”; in that of `Cc1ccn(-c2cc([C@@H](O)c3ncco3)cc(NC3CCC(F)(F)CC3)n2)n1` [NSSy6415], “++ (++ means 200 nM-1000 nM)”. To `Cc1ccn(-c2cc([C@H](O)c3ncco3)cc(NC3CCC(F)(F)CC3)n2)n1` [NSSy6416] belongs “++ (++ means 200 nM-1000 nM)”. Regarding `Cc1ccn(-c2cc(COc3ccc(C#N)nn3)cc(NC3CCC(F)(F)CC3)n2)n1` [NSSy6417], the “SC100 (μM)” value is “+++ (+++ means <200 nM)”.

As to `Cc1ccn(-c2nc(NC3CC4CCC3O4)cc(N3CCOCC3)n2)n1` (centres unmarked) [NSSy6420], the “SC100 (μM)” value was “+ (+ means >1 uM)”. `OC(c1cc(NC2CCC(F)(F)CC2)nc(-n2cc(F)cn2)c1)c1ncco1` (centres unmarked) [NSSy6435]: the “SC100 (μM)” value was “+ (+ means >1 uM)”. To `CC(=O)N1CCC(O)(c2cc(NC3CCC(F)(F)CC3)nc(-c3nc(C)cs3)c2)CC1` [NSSy6436, 1-(4-(2-((4,4-difluorocyclohexyl)amino)-6-(4-methylthiazol-2-yl)pyridin-4-yl)-4-hydroxypiperidin-1-yl)ethan-1-one] belongs “+++ (+++ means <200 nM)”; to `Cc1ccn(-c2nc(N[C@@H]3C[C@H]4CC[C@@H]3O4)cc(N3CCOCC3)n2)n1` [NSSy6445], “+ (+ means >1 uM)”; to `Cc1ccn(-c2nc(N[C@H]3C[C@@H]4CC[C@H]3O4)cc(N3CCOCC3)n2)n1` [NSSy6446], “+ (+ means >1 uM)”.

With `Cc1ccn(-c2cc(COc3ccc(C(N)=O)nn3)cc(NC3CCC(F)(F)CC3)n2)n1` [NSSy6451], the “SC100 (μM)” value is reported as “+++ (+++ means <200 nM)”.

Take `CC1(O)CC(Oc2cc(-n3ccc(F)n3)nc(NC3CCC(F)(F)CC3)n2)C1` (centres unmarked) [NSSy6464, 3-((2-((4,4-difluorocyclohexyl)amino)-6-(3-fluoro-1H-pyrazol-1-yl)pyrimidin-4-yl)oxy)-1-methylcyclobutan-1-ol]: the “SC100 (μM)” value is listed as “+ (+ means >1 uM)”. `Fc1ccn(-c2cc(N3CC4(COC4)C3)nc(NC3CCC(F)(F)CC3)n2)n1` [NSSy6467]: the “SC100 (μM)” value was “+ (+ means >1 uM)”.

For `Fc1ccn(-c2cc(N3CCOCC3)nc(NC3CCC(F)(F)CC3)n2)n1` [NSSy6468], the “SC100 (μM)” value is on record as “+ (+ means >1 uM)”. To `Cc1ccn(-c2cc(C(O)Cc3ccc(C#N)cn3)cc(NC3CCC(F)(F)CC3)n2)n1` (centres unmarked) [NSSy6469, 6-(2-(2-((4,4-difluorocyclohexyl)amino)-6-(3-methyl-1H-pyrazol-1-yl)pyridin-4-yl)-2-hydroxyethyl)nicotinonitrile] belongs “+++ (+++ means <200 nM)”; to `Cc1ccn(-c2cc(N3CCOCC3)cc(C(=O)c3ccc(F)cc3)n2)n1` [NSSy6470, (4-fluorophenyl) (6-(3-methyl-1H-pyrazol-1-yl)-4-morpholinopyridin-2-yl) methanone], “+ (+ means >1 uM)”. To `Cc1cc(C)n(-c2cc(N3CC4(COC4)C3)nc(NC3CCC(F)CC3)n2)n1` (centres unmarked) [NSSy6471, 4-(3,5-dimethyl-1H-pyrazol-1-yl)-N-(4-fluorocyclohexyl)-6-(2-oxa-6-azaspiro[3.3]heptan-6-yl)pyrimidin-2-amine] belongs “+ (+ means >1 uM)”; to `Cc1ccn(-c2cc(N3CCOCC3)cc(C(O)c3ccc(F)cc3)n2)n1` (centres unmarked) [NSSy6472, (4-fluorophenyl) (6-(3-methyl-1H-pyrazol-1-yl)-4-morpholinopyridin-2-yl) methanol], “+ (+ means >1 uM)”.

For the compound `Cc1nn(-c2cc(C(O)c3ncco3)cc(NC3CCC(F)(F)CC3)n2)c(C)c1F` (centres unmarked) [NSSy6473], the “SC100 (μM)” value is listed as “++ (++ means 200 nM-1000 nM)”. To `Cc1ccn(-c2nc(NC3CCC(O)CC3)cc(N3CCOCC3)n2)n1` (centres unmarked) [NSSy6486] belongs “+ (+ means >1 uM)”; to `Cc1ccn(-c2cc(S(=O)(=O)N3CCC(F)(F)CC3)cc(N3CCOCC3)n2)n1` [NSSy6489, 4-(4-((4,4-difluoropiperidin-1-yl)sulfonyl)-6-(3-methyl-1H-pyrazol-1-yl)pyridin-2-yl)morpholine], “+ (+ means >1 uM)”.

`Cc1ccn(-c2cc(N3CCOCC3)nc(NC3CCC(F)(F)CC3)n2)n1` [NSSy6499]: the “SC100 (μM)” value is “+ (+ means >1 uM)”. To `Cc1ccn(-c2nc(NC34CC5CC(CC(O)(C5)C3)C4)cc(N3CCOCC3)n2)n1` [NSSy6511] belongs “+ (+ means >1 uM)”; to `Cc1ccn(-c2cc(N3CCOCC3)cc([C@@H](O)c3ccc(F)cc3)n2)n1` [NSSy6513, (S)-(4-fluorophenyl)(6-(3-methyl-1H-pyrazol-1-yl)-4-morpholinopyridin-2-yl)methanol], “+ (+ means >1 uM)”; to `Cc1ccn(-c2cc(N3CCOCC3)cc([C@H](O)c3ccc(F)cc3)n2)n1` [NSSy6514, (R)-(4-fluorophenyl)(6-(3-methyl-1H-pyrazol-1-yl)-4-morpholinopyridin-2-yl)methanol], “+ (+ means >1 uM)”.
